From US20220364184A1, “COMPOSITIONS AND METHODS FOR TREATMENT OF A POOR PROGNOSIS SUBTYPE OF COLORECTAL CANCER” (DANA-FARBER CANCER INSTITUTE, INC., priority 2019, published 2022)

Assays:
Assay type in all cases: cell-based, human
[1] = tested on: RKO cells; assay: Live-cell calcium imaging of spontaneous calcium transients (GCaMP5); details: calcium wave spike library
Method: 2 mg/ml neomycin was added to the cell culture medium 48 hrs after transfection to generate cell lines with stable GCaMP5 expression and removed one week prior to the initiation of experiment. Calcium transients were captured by live-cell imaging using a confocal microscope. Time lapse imaging was setup so that an image was captured every 0.5 s for 30 minutes, with an exposure time of 0.5 s. Calcium measurements were normalized to background fluorescence and the relative change in calcium (F(t)) over time was calculated by the formula: […]
where F0 was defined as the average intensity of the 20% lowest grey values in a region of interest (ROI), F was defined as the normalized grey values of ROI in time point t. Global synchronicity was calculated by cross correlation method in FluoroSNNAP (seas.upenn.edu/˜molneuro/fluorosnnap.html).

[2] = tested on: RKO cells; assay: Cell viability of wild-type and BCL9 knockout RKO cells after Poly I:C
[3] = tested on: BCL9; assay: Immunofluorescence / FISH of BCL9 localization; details: RKO cells
Method: At various times after the scratch was made, cells were fixed with 4% paraformaldehyde for 15 minutes at room temperature. Immunofluorescence was subsequently used to identify the location of BCL9 (see immunofluorescence method section for more detail).
Cells were cultured on coming Glass Coverslips (354085, BioCoat) contained within the wells of a 24-well plate for 24 hrs, and then fixed using 4% paraformaldehyde. Cells were washed three times with PBS, permeabilized with 0.5% Triton X-100 (Tris-HCl pH=7.6, 150 mM NaCl, 0.5% Triton X-100 (v/v), washing buffer) for 15 minutes at room temperature, and blocked with 5% BSA for 1 hour at room temperature. The cells were incubated overnight at 4 degrees with the following antibodies; anti-BCL9 (ab37305, Abcam®), NONO (TA504777, Origene®), ILF2 (PA5-18718, ThermoFisher®) or β-catenin (610154, BD Transduction Laboratories). The following day, cells were washed 3 times with PBS and incubated with fluorescently tagged anti-mouse (A11029, ThermoFisher®), rabbit (A11035, ThermoFisher®) or goat (A21447, ThermoFisher®) secondary antibodies for 1 hour at room temperature. Cells were washed 3 times with PBS and stained with DAPI (D9542, Millipore-Sigma®) for two mins. Cells were subsequently washed three times with PBS to remove any residual DAPI stain, and then imaged with an SD confocal microscope. The colocalization threshold is calculated by ImageJ2. Dotted staining area of BCL9 was calculated by the following step: confocal images were processed by High Frequency Signaling Removal to filter out the rapidly changing signal. This process removes the noise and non-dotted staining of BCL9. Then, the top 2% signaling areas were selected. High Frequency Signaling Removal and area size was calculated by ImageJ2. NEAT1 and fluorescence probe was purchased from Biosearch Technology (NEAT1, SMF-2036-1). IF combined FISH of BCL9/NEAT1 was performed as recommended by the supplier.

[4] = tested on: BCL9; assay: Immunoblotting of protein levels; details: longer exposure, FIG. 3F and 16D
Method: Following lysis, cells were incubated on ice for 10 minutes and centrifuged for 10 minutes at 4 degrees at 16000×g.

[5] = tested on: RGS4, CACNA2D1, ADRB1 mRNA; assay: mRNA expression by RNA-seq / qRT-PCR; details: FIG. 3J
Method: RNA was extracted from wild type and BCL9 knockout RKO cells with or without Poly I:C treatment (1 μg/ml) and subsequently purified using the TURBO DNA-free™ Kit (AM1907, invitrogen) to remove any residual DNA. An RNA library was prepared using the ribosome RNA removing method and sequenced with a 150 bp paired-end protocol in the Center for Cancer Computational Biology at the Dana Farber Cancer Institute (PRJNA554110). After quality control (QC) analysis was performed using fastQC, the first 10 bases were trimmed for each read. STAR software was used to map the readings to the human genome (hg19) and duplicates were removed using Picard. HTSeq was used to evaluate the gene expression levels by the count number for each gene and were subsequently annotated using the Ensemble database. Gene differential analysis was then applied to the expression profiling table using R package edgeR. For further analysis, the difference in exon usage between different conditions was calculated and R package DEXSeq was used to find differences between them.

[6] = tested on: BCL9/β-catenin protein complex; assay: Coimmunoprecipitation of BCL9/β-catenin complex
Method: To extract nuclear protein, cells were incubated with cytoplasmic lysis buffer (50 mM Tris-HCl pH=8.0, 20 mM NaCl, 2 mM EDTA, 0.5% Tween-20 containing protease/phosphatase Inhibitor, #5872, Cell Signaling®) on ice for 10 mins, centrifuged at 6000×g, and the precipitate collected. This step was repeated 3 times to remove at much cytoplasmic protein as possible. Subsequently, nuclear lysis buffer (50 mM Tris-HCl pH=7.4, 150 mM NaCl, 2 mM EDTA, 1% Triton X-100(v/v) containing protease/phosphatase inhibitor) was added to the precipitate, and sonication was used to lyse the sample before centrifugation at 16000×g for 15 minutes at 4 degrees. 1 mg of the nuclear lysate was blocked with 5% BSA for 1 hr at 4 degrees, before overnight incubation with anti-BCL9 (ab37305 Abcam®, 6109 generated in New England Biolabs), NONO (ab70335, Abcam®), SFPQ (ab38148), ILF2 (H00003608-D01, abnova) or β-catenin (9562L, Cell Signaling®) antibodies. Normal rabbit IgG (sc-3888, Santa Cruz®) was used as a negative control. The following day, Protein G and A DynaBeads (10003D, 10002D, ThermoFisher®) were added to the nuclear lysate at a ratio of 1:1 and rotated for an additional 4 hrs. […] In addition, pulled down protein samples were analyzed by silver staining; bands which existed in anti-BCL9 samples, but not in the anti-normal IgG groups, were cut and used for further MS analysis to validate previous results. […]

[7] = tested on: DLD-1 cells; assay: IF and Co-IP of BCL9 with paraspeckle proteins in DLD-1 cells
Method: To extract nuclear protein, cells were incubated with cytoplasmic lysis buffer (50 mM Tris-HCl pH=8.0, 20 mM NaCl, 2 mM EDTA, 0.5% Tween-20 containing protease/phosphatase Inhibitor, #5872, Cell Signaling®) on ice for 10 mins, centrifuged at 6000×g, and the precipitate collected. This step was repeated 3 times to remove at much cytoplasmic protein as possible. Subsequently, nuclear lysis buffer (50 mM Tris-HCl pH=7.4, 150 mM NaCl, 2 mM EDTA, 1% Triton X-100(v/v) containing protease/phosphatase inhibitor) was added to the precipitate, and sonication was used to lyse the sample before centrifugation at 16000×g for 15 minutes at 4 degrees. […] In addition, pulled down protein samples were analyzed by silver staining; bands which existed in anti-BCL9 samples, but not in the anti-normal IgG groups, were cut and used for further MS analysis to validate previous results. […]
Cells were cultured on coming Glass Coverslips (354085, BioCoat) contained within the wells of a 24-well plate for 24 hrs, and then fixed using 4% paraformaldehyde. […] The colocalization threshold is calculated by ImageJ2. Dotted staining area of BCL9 was calculated by the following step: confocal images were processed by High Frequency Signaling Removal to filter out the rapidly changing signal. […]

[8] = tested on: BCL9/paraspeckle proteins (NONO, SFPQ, ILF2); assay: Coimmunoprecipitation of BCL9 with paraspeckle proteins; details: RKO cells, FIG. 16K
Method: This step was repeated 3 times to remove at much cytoplasmic protein as possible. Subsequently, nuclear lysis buffer (50 mM Tris-HCl pH=7.4, 150 mM NaCl, 2 mM EDTA, 1% Triton X-100(v/v) containing protease/phosphatase inhibitor) was added to the precipitate, and sonication was used to lyse the sample before centrifugation at 16000×g for 15 minutes at 4 degrees. […] The following day, Protein G and A DynaBeads (10003D, 10002D, ThermoFisher®) were added to the nuclear lysate at a ratio of 1:1 and rotated for an additional 4 hrs. The beads were washed 3 times with washing buffer (50 mM Tris-HCl pH=7.4, 200 mM NaCl, 2 mM EDTA, 1% Triton X-100(v/v)). The beads were then re-suspended with 2×LDS sample buffer and boiled for 10 mins. For Immunoblotting, the sample was electrophoresed using SDS-PAGE, transferred to nitrocellulose membrane and blocked using non-fat 5% milk.

Molecule | length and amplitude of calcium transients ([1]; BCL9 knockout cells) | length and amplitude of calcium transients ([1]; wild-type cells) | growth of cells ([2]; BCL9 knockout RKO cells) | growth of cells ([2]; wild-type RKO cells) | partial co-localization between BCL9/IF and NEAT1/FISH signals ([3]; FIG. 16I) | accumulation of BCL9 around the nucleus ([3]; after 6 hrs, FIG. 16C) | BCL9 accumulation around the nucleolus ([3]; longer exposure, FIG. 3F) | BCL9 and ILF2 protein levels [4] | transcription of the full-length RGS4 mRNA isoform ([5]; BCL9 knockout cells) | expression of RGS4, CACNA2D1 and ADRB1 ([5]; wild-type RKO cells, RNA-seq, Poly I:C 1 μg/ml) | amount of BCL9/β-catenin protein complex ([6]; Colo320 cells, FIG. 16J) | location and interaction of BCL9 with paraspeckle proteins [7] | BCL9 binding to paraspeckle proteins [8] | interaction between BCL9 and β-catenin ([6]; RKO cells, FIG. 16K)
poly I:C | not | enhanced | not | increased | increased | accumulation of BCL9 around the nucleus was observed | induced further BCL9 accumulation around the nucleolus | increased | not rescued | increased | reduced | unresponsive |  | 
Wnt3A: Wnt ligand used to treat RKO cells (protein, UniProt P56704 19-352, looked up) Protein Wnt-3a: SYPIWWSLAVGPQYSSLGSQPILCASIPGLVPKQLRFCRNYVEIMPSVAEGIKIGIQECQHQFRGRRWNCTTVHDSLAIFGPVLDKATRESAFVHAIASAGVAFAVTRSCAEGTAAICGCSSRHQGSPGKGWKWGGCSEDIEFGGMVSREFADARENRPDARSAMNRHNNEAGRQAIASHMHLKCKCHGLSGSCEVKTCWWSQPDFRAIGDFLKDKYDSASEMVVEKHRESRGWVETLRPRYTYFKVPTERDLVYYEASPNFCEPNPETGSFGTRDRTCNVSSHGIDGCDLLCCGRGHNARAERRREKCRCVFHWCCYVSCQECTRVYDVHTCK |  |  |  |  |  |  |  |  |  |  |  |  | did not affect | increased
